# Data taken from US20200131176A1, “SELECTIVE INHIBITORS OF CLINICALLY IMPORTANT MUTANTS OF THE EGFR TYROSINE KINASE” (CS Pharmatech Limited, priority 2017, published 2020).
# pIC50: −log10 of the molar value. Where “and” joins values, the source holds several entries; their conditions need not be identical. Equal entries are not always repeated. Where two headings read alike, the source gives them in different places.
# Columns and labels:
# INSR = biological target: T1, INSR (Homo sapiens, UniProt P06213); assay: INSR inhibition assay (Caliper mobility shift); format: biochemical; settings: enzyme assay
# T1 construct: purchased CARNA BIOSCIENCE 08-142
# [1] = biological target: T2, Exon 19 deletion EGFR (activating single mutant) in PC-9 cells (Homo sapiens, UniProt P00533, DEL746-750); assay: Exon 19 deletion EGFR PC-9 cellular autophosphorylation assay (p-EGFR ELISA); format: cell-based; settings: PC9, 2 h treatment, read-out: SM (PC9) IC50
# T2 construct: cellular phosphorylation of endogenous p-EGFR; host or cells: PC9 (PC-9) human lung cell line
# IGF-1R = biological target: T3, IGF-1R (Homo sapiens, UniProt P08069); assay: IGF-1R inhibition assay (Caliper mobility shift); format: biochemical; settings: enzyme assay
# T3 construct: purchased CARNA BIOSCIENCE 08-141
# [2] = biological target: T4, L858R/T790M double mutant EGFR in H1975 cells (Homo sapiens, UniProt P00533, L858R/T790M); assay: L858R/T790M double mutant H1975 autophosphorylation inhibition assay (ELISA); format: cell-based; settings: cellular EGFR autophosphorylation, H1975, 2 h treatment; read-out: DM (H1975) IC50
# T4 construct: endogenous in cells; host or cells: H1975 cells
# [3] = biological target: Wild type EGFR in A431 cells (Homo sapiens, UniProt P00533); settings: WT (A431) IC50 nM, cellular EGFR autophosphorylation, A431, 2 h treatment then EGF stimulation 10 min
# PC-9 cells = assay: PC-9 growth inhibition assay (cell proliferation, CellTiter-Glo, 72 h); format: cell-based, human; settings: cellular proliferation, PC9 cells, single mutant EGFR
# H1975 cells = assay: H1975 inhibition assay (cell proliferation, CellTiter-Glo, 72 h); format: cell-based, human; settings: cellular proliferation, double mutant EGFR
# A431 cells = assay: A431 inhibition assay (cell proliferation, CellTiter-Glo, 72 h); format: cell-based, human
# [4] = biological target: hERG channel (HEK 293 cell line stably expressing hERG channel) (Homo sapiens, UniProt Q12809); assay: cell-based
# Mouse in vivo PK study [5] = settings: male CD1 mice
# Mouse in vivo PK study [6] = settings: male CD1 mice; remark: listed apart in the source
# Description: To determine the drug concentration in plasma of the compounds of the present disclosure following intravenous and oral administration in male CD 1 Mice, pharmacokinetic profile and PK parameters were obtained.
# Test animals: healthy male CD1 mice (body weight 20-30 g, 18 mice, free access to food and water), provided by Sibeifu laboratory. […]
# Samples collection: the healthy animals were used, weighed the bodyweight and marked at tail and cage card prior to dosing. Blood samples (0.03 mL per time point) were collected from dorsal metatarsal vein at 0.083, 0.25, 0.5, 1, 2, 4, 8, 24 h post dose for IV group and at 0.25, 0.5, 1, 2, 4, 8, 24 h post dose for PO group, the terminal time point was collected from heart (˜0.3 mL). The blood samples were put into the tube with heparin-Na coated and then put on the cold box, centrifuged at 4° C. 4000 g, 5 minutes immediately after collecting all samples per time point to get plasma. The plasma samples were stored in a freezer at −75±15° C. prior to analysis.
# The drug concentration was determined by LC/MS/MS method, and the PK parameters were observed as follows.
# [7] = tested on: H1975 NSCLC cells xenograft (EGFR L858R/T790M double mutant); assay: EGFR L858R/T790M double-mutant H1975 xenograft model; format: in vivo, nu/nu mice; settings: day 10 after dosing; for Tumor Size: average ± SEM, n = 9
# [8] = Homo sapiens, PC-9, 72 h, read-out: PC9 IC50 (nM) SM
# [9] = Homo sapiens, NCI-H1975, 72 h, read-out: NCI-H1975 IC50 (nM) DM
# [10] = Homo sapiens, A-431, 72 h, cellular proliferation, wild type EGFR, read-out: A431 IC50 (nM) WT
# [11] = NCI-H1975 cells, read-out: NCI-H1975 IC50 (nM) DM
# [12] = cellular proliferation, wild type EGFR, read-out: A431 IC50 (nM) WT
# [13] = mouse, plasma, 10 mg/kg PO, read-out: T1/2 (PO) (converted)
# Wild type EGFR in A431 cells, sequence (P00533 25-1210): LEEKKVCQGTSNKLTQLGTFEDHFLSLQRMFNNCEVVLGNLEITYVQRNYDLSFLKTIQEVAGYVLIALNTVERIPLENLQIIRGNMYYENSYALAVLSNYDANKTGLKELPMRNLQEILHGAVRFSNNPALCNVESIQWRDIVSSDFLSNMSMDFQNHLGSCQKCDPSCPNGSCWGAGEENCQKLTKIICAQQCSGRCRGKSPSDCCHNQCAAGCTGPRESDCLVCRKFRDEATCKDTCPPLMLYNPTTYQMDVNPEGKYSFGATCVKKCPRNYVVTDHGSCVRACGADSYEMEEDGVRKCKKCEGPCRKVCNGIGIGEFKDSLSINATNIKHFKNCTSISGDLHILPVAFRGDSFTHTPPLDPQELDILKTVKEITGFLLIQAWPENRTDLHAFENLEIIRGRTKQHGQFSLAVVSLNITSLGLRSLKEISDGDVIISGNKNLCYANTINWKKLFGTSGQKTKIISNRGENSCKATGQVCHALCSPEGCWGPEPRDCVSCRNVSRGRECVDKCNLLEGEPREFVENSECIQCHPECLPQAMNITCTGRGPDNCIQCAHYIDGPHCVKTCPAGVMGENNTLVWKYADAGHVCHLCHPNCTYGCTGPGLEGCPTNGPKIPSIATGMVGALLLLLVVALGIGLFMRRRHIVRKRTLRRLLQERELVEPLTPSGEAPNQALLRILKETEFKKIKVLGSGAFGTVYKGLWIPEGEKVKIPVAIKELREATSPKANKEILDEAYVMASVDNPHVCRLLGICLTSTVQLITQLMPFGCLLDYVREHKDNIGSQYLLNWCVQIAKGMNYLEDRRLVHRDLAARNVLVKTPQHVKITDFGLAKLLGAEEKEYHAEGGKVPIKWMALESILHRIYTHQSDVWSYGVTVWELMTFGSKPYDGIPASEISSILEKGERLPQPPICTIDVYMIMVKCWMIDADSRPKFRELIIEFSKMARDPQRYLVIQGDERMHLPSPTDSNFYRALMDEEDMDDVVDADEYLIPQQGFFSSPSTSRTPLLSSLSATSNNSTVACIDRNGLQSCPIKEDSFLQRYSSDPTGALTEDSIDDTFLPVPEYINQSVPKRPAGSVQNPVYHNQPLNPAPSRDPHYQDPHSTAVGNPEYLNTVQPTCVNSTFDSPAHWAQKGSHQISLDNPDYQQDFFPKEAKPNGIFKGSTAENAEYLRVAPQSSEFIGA
# T1 sequence (P06213 1005-1382 limits assumed): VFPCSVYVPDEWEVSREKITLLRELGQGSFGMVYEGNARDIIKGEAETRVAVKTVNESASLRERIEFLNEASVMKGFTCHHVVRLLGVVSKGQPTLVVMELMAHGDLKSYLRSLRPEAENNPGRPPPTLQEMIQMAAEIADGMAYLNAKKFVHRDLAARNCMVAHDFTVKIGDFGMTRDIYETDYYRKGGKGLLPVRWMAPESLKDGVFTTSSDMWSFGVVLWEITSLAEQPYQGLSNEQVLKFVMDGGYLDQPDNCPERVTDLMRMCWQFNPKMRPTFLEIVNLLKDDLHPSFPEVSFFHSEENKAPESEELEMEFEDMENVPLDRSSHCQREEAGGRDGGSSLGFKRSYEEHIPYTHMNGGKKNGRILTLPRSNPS
# T4 sequence (P00533 25-1210 T790M/L858R): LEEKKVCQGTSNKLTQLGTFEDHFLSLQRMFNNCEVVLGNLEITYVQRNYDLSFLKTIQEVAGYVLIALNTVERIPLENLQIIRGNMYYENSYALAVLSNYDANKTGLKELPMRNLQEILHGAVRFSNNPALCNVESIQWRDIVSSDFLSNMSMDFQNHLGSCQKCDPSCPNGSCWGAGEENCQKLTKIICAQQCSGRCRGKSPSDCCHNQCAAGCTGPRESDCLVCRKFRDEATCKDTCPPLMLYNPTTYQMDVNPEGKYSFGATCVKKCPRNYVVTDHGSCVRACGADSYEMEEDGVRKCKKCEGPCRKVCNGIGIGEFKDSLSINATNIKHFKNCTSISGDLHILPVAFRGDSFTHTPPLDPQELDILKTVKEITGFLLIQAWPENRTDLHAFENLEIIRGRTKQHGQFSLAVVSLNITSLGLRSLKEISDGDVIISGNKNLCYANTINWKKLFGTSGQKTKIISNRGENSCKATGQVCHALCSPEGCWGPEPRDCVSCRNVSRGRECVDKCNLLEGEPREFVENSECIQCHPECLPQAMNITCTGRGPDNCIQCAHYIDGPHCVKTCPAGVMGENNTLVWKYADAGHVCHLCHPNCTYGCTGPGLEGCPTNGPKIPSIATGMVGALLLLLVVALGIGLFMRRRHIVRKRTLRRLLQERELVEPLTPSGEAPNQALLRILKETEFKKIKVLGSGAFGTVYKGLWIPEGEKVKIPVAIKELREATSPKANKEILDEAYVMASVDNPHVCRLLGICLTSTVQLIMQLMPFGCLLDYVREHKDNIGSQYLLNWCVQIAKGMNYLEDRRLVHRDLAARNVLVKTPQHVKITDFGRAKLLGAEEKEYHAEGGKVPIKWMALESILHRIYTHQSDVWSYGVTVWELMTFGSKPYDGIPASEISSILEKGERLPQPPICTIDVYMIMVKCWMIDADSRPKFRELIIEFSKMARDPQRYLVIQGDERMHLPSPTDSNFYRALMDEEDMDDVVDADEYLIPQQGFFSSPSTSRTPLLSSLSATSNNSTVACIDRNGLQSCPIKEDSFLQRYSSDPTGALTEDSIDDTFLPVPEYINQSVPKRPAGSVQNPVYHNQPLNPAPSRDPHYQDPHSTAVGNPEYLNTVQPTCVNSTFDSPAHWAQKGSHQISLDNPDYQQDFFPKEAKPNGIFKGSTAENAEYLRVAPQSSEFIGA
# T3 sequence (P08069 959-1367 limits assumed): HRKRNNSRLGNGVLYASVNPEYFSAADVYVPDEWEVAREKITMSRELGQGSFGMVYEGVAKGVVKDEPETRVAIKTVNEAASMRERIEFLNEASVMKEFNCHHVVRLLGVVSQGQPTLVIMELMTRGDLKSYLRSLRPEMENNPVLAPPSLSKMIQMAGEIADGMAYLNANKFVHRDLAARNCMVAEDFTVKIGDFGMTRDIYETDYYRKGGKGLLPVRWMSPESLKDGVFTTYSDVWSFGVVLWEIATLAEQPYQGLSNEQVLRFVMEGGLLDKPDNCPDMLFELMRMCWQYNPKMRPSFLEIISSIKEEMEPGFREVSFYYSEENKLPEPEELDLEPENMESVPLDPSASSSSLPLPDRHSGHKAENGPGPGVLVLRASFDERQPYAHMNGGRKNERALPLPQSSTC
# T2 sequence (P00533 with tags, fused parts or gaps DEL746-750): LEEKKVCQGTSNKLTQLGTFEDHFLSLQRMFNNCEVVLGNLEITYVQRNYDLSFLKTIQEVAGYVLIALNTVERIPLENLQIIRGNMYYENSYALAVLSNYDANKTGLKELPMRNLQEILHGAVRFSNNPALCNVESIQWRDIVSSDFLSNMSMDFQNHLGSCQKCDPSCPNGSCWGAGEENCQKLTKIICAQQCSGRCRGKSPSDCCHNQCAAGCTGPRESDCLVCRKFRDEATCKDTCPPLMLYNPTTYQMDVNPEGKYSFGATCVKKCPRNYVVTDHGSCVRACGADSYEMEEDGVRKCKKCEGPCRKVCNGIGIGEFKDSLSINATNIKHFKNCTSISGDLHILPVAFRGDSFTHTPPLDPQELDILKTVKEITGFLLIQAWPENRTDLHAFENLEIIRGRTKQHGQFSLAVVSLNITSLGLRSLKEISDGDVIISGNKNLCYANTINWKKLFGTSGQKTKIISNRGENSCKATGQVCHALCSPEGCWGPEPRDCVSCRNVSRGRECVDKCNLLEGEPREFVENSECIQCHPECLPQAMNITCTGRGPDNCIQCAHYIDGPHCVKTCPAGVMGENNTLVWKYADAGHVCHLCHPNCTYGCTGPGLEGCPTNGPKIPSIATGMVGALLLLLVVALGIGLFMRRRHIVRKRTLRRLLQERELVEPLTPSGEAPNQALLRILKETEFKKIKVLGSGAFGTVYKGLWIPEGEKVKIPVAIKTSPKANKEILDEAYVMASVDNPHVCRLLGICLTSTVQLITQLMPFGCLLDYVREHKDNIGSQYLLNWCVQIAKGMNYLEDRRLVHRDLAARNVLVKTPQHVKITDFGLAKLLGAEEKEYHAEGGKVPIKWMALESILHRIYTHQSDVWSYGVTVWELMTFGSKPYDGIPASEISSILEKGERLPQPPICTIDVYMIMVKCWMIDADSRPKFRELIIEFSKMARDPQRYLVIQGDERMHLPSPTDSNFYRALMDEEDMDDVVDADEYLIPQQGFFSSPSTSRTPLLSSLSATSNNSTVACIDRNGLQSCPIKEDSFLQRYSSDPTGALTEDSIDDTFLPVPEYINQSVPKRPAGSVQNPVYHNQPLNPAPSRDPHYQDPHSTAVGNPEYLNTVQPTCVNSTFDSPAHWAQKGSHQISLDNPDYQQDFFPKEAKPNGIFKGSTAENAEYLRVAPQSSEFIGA
IC50 (INSR) [nM],pIC50 [1],IC50 (IGF-1R) [nM],pIC50 [2],IC50 [3],IC50 (PC-9 cells; [8]) [nM],IC50 (H1975 cells; [9]) [nM],IC50 (A431 cells; [10]) [nM],IC50 (PC-9 cells; read-out: PC9 IC50 (nM) SM),IC50 (H1975 cells; [11]),IC50 (A431 cells; [12]) [nM],Structure (SMILES),pIC50 [4],also measured
2530,8.24,5650,8.34,35 nM,1.79,3.57,675,,,,"C=CC(=O)Nc1cc(Nc2nccc(-n3nc(NCC)c4ncccc43)n2)c(OCC(F)F)cc1N(C)CCN(C)C [Example 22, N-(4-(2,2-Difluoroethoxy)-2-((2-(dimethylamino)ethyl)(methyl)amino)-5-((4-(3-(ethylamino)-1H-pyrazolo[4,3-b]pyridin-1-yl)pyrimidin-2-yl)amino)phenyl)acrylamide]",,
2140,7.77,1590,8.19,148 nM,4.86,5.86,1300,2.9 nM,3.58 nM,2210,"C=CC(=O)Nc1cc(Nc2nccc(-n3nc(N(C)C)c4ccsc43)n2)c(OC)cc1N(C)CCN(C)C [Example 5, N-(5-((4-(3-(Dimethylamino)-1H-thieno[2,3-c]pyrazol-1-yl)pyrimidin-2-yl)amino)-2-((2-(dimethylamino)ethyl)(methyl)amino)-4-methoxyphenyl) acrylamide]",5.46,
965,7.96,831,8.70,69.5 nM,1.91,1.03,1460,,,,"C=CC(=O)Nc1cc(Nc2nccc(-c3cc(C#N)cc4c3ccn4C)n2)c(OC)cc1N(C)CCN(C)C [Example 4, N-(5-((4-(6-Cyano-1-methyl-1H-indol-4-yl)pyrimidin-2-yl)amino)-2-((2-(dimethylamino)ethyl)(methyl)amino)-4-methoxyphenyl)acrylamide]",5.65,"AUC (Mouse in vivo PK study [5]; mouse, plasma, 10 mg/kg PO): 225 ng·h/mL; Cmax (Mouse in vivo PK study [5]; mouse, plasma, 10 mg/kg PO): 80.2 ng/mL; half-life (Mouse in vivo PK study [5]; [13]): 7.3 h; F (Mouse in vivo PK study [6]; 1 mg/kg IV, 10 mg/kg PO): 15%; AUC (Mouse in vivo PK study [6]; mouse, plasma, 1 mg/kg IV): 96 ng·h/mL; clearance (Mouse in vivo PK study [6]; mouse, plasma, 1 mg/kg IV): 183 mL/min/kg; half-life (Mouse in vivo PK study [6]; mouse, plasma, 1 mg/kg IV, read-out: T1/2 (IV) (converted)): 0.576 h"
2730,7.62,1510,7.91,192 nM,7.21,6.84,1710,,,,"C=CC(=O)Nc1cc(Nc2nccc(-n3nc(N(C)C)c4ncccc43)n2)c(OCC(F)F)cc1N(C)CCN(C)C [Example 21, N-(4-(2,2-Difluoroethoxy)-5-((4-(3-(dimethylamino)-1H-pyrazolo[4,3-b]pyridin-1-yl)pyrimidin-2-yl)amino)-2-(N-(2-(dimethylamino)ethyl)-N-methylamino)phenyl)acrylamide]",5.49,
968,8.23,1160,8.40,49.1 nM,1.79,2.66,1240,,,,"C=CC(=O)Nc1cc(Nc2nccc(-n3nc(N(C)C)c4ccccc43)n2)c(OC(F)F)cc1N(C)CCN(C)C [Example 18, N-(4-(Difluoromethoxy)-5-((4-(3-(dimethylamino)-1H-indazol-1-yl)pyrimidin-2-yl)amino)-2-((2-(dimethylamino)ethyl)(methyl)amino)phenyl) acrylamide]",5.78,
1820,8.15 and 8.27,1120,8.37 and 8.60,77.1 nM and 166 nM,4.18,4.77,2120,3.22 nM,3.45 nM,3680,"C=CC(=O)Nc1cc(Nc2nccc(-c3cc(C#N)c4c(c3)c(C)cn4C)n2)c(OC)cc1N(C)CCN(C)C [Example 2, N-(5-((4-(7-Cyano-1,3-dimethyl-1H-indol-5-yl)pyrimidin-2-yl)amino)-2-((2-(dimethylamino)ethyl)(methyl)amino)-4-methoxyphenyl)acrylamide]",5.18,"F (Mouse in vivo PK study [5]; 2 mg/kg IV, 10 mg/kg PO): 20.8%; clearance (Mouse in vivo PK study [5]; mouse, plasma, 2 mg/kg IV): 35.5 mL/min/kg; half-life (Mouse in vivo PK study [5]; mouse, plasma, 2 mg/kg IV, read-out: T1/2 (IV) (converted)): 1.5 h; AUC (Mouse in vivo PK study [5]; mouse, plasma, 10 mg/kg PO): 976 ng·h/mL; Cmax (Mouse in vivo PK study [5]; mouse, plasma, 10 mg/kg PO): 119 ng/mL; half-life (Mouse in vivo PK study [5]; [13]): 2.57 h; AUC (Mouse in vivo PK study [6]; mouse, plasma, 2 mg/kg IV): 937 ng·h/mL; TGI (tumor growth inhibition) ([7]; 5 mg/kg): 96.93%; TRTV/CRTV (relative tumor volume) ([7]; 5 mg/kg): 19.70%; Tumor Size ([7]; 5 mg/kg): 230 ± 93 mm^3; TGI (tumor growth inhibition) ([7]; 15 mg/kg): 115.76%; TRTV/CRTV (relative tumor volume) ([7]; 15 mg/kg): 3.93%; Tumor Size ([7]; 15 mg/kg): 46 ± 32 mm^3; TGI (tumor growth inhibition) ([7]; 30 mg/kg): 115.52%; TRTV/CRTV (relative tumor volume) ([7]; 30 mg/kg): 3.92%; Tumor Size ([7]; 30 mg/kg): 45 ± 19 mm^3"
1750,7.83,1680,8.27,92.8 nM,3.78,2.82,953,,,,C=CC(=O)Nc1cc(Nc2nccc(-n3nc(N(C)C)c4ncccc43)n2)c(OC(F)F)cc1N(C)CCN(C)C [Example 19],5.96,
94.8,8.39 and 8.33 and 8.25 and 8.23,102,,,,,,1.34 nM and 2.27 nM and 1.92 nM,2.95 nM and 3.06 nM and 4.05 nM,95.2,"C=CC(=O)Nc1cc(Nc2nccc(-c3c[nH]c4ccccc34)n2)c(OC)cc1N(C)CCN(C)C [AZD5104, reference compound]",,"IC50 (PC-9 cells; listed as AZD-5104, read-out: PC9 IC50 (nM) SM): 1.57 nM; IC50 (H1975 cells; NCI-H1975 cells, listed as AZD-5104, read-out: NCI-H1975 IC50 (nM) DM): 3.9 nM"
621,7.48,390,8.08,302 nM,7.38,4.76,2170,,,,"C=CC(=O)Nc1cc(Nc2nccc(-c3cc(C#N)c4ccn(C)c4c3)n2)c(OC)cc1N(C)CCN(C)C [Example 7, N-(5-((4-(4-Cyano-1-methyl-1H-indol-6-yl)pyrimidin-2-yl)amino)-2-((2-(dimethylamino)ethyl)(methyl)amino)-4-methoxyphenyl)acrylamide]",5.96,

Structure (SMILES),IC50 (INSR) [nM],pIC50 [1],IC50 (IGF-1R) [nM],pIC50 [2],IC50 [3],IC50 (PC-9 cells; [8]) [nM],IC50 (H1975 cells; [9]) [nM],IC50 (A431 cells; [10]) [nM],IC50 (PC-9 cells; read-out: PC9 IC50 (nM) SM),IC50 (H1975 cells; [11]),IC50 (A431 cells; [12]) [nM],pIC50 [4],also measured
"C=CC(=O)Nc1cc(Nc2nccc(-c3cn(C)c4ccccc34)n2)c(OC)cc1N(C)CCN(C)C [AZD9291, reference compound]",[…],,455,,,,[…],,7.43 nM,[…],,,"TGI (tumor growth inhibition) ([7]; 5 mg/kg): 107.63%; Tumor Size ([7]; 5 mg/kg): 123 ± 39 mm^3; IC50 (H1975 cells; NCI-H1975 cells, listed as AZD-9291, read-out: NCI-H1975 IC50 (nM) DM): […]; IC50 (A431 cells; read-out: A431 IC50 (nM) WT, cellular proliferation, wild type EGFR): […]"
